Experimental data taken from the supplement of paper PMC10307832.

Legend:
Assay in all cases: relative viability (nuclei count vs DMSO), 5 days (fraction); higher = more cells survive
[1] = system: BEN
Procedure, shortened: (§1)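 Five library-drug doses in √10 steps were combined with a fixed anchor-drug dose, or a single drug was given alone, by pin tool to lung cancer cell lines in 1536-well plates the day after seeding. Nuclei were stained and counted after 5 days. Relative viability is the nuclei count in treated wells over that in vehicle wells, taken as the median of duplicate plates.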

[2] = system: NCI-H1355
Procedure, shortened: as §1

[3] = system: LCLC-97TM1
Procedure, shortened: as §1

[4] = system: LU99A
Procedure, shortened: as §1

[5] = system: NCI-H661
Procedure, shortened: as §1

[6] = system: NCI-H460
Procedure, shortened: as §1

[7] = system: HCC-78
Procedure, shortened: as §1

[8] = system: NCI-H322M
Procedure, shortened: as §1

[9] = system: NCI-H2342
Procedure, shortened: as §1

[10] = system: NCI-H2126
Procedure, shortened: as §1

[11] = system: HCC-15
Procedure, shortened: as §1

[12] = system: NCI-H2228
Procedure, shortened: as §1

[13] = system: NCI-H1395
Procedure, shortened: as §1

[14] = system: 201T
Procedure, shortened: as §1

[15] = system: NCI-H2009
Procedure, shortened: as §1

[16] = system: NCI-H838
Procedure, shortened: as §1

[17] = system: NCI-H647
Procedure, shortened: as §1

[18] = system: NCI-H23
Procedure, shortened: as §1

[19] = system: NCI-H2085
Procedure, shortened: as §1

[20] = system: NCI-H650
Procedure, shortened: as §1

[21] = system: EPLC-272H
Procedure, shortened: as §1

[22] = system: PC-14
Procedure, shortened: as §1

[23] = system: NCI-H2405
Procedure, shortened: as §1

Compound: CN1CCN(CCOc2cc(OC3CCOCC3)c3c(Nc4c(Cl)ccc5c4OCO5)ncnc3c2)CC1 [Saracatinib] + Cc1cc(Nc2cc(N3CCN(C)CC3)nc(Sc3ccc(NC(=O)C4CC4)cc3)n2)n[nH]1 [Tozasertib] (partner 0.1 µM)
- relative viability ([1]; first compound 0.02 µM): 0.518
- relative viability ([1]; first compound 0.2 µM): 0.477
- relative viability ([1]; first compound 0.6325 µM): 0.458
- relative viability ([1]; first compound 2 µM): 0.419
- relative viability ([2]; first compound 0.02 µM): 0.532
- relative viability ([2]; first compound 0.2 µM): 0.317
- relative viability ([2]; first compound 0.6325 µM): 0.454
- relative viability ([2]; first compound 2 µM): 0.36
- relative viability ([3]; first compound 0.02 µM): 0.21
- relative viability ([3]; first compound 0.2 µM): 0.173
- relative viability ([3]; first compound 0.6325 µM): 0.287
- relative viability ([3]; first compound 2 µM): 0.185
- relative viability ([4]; first compound 0.02 µM): 0.26
- relative viability ([4]; first compound 0.2 µM): 0.249
- relative viability ([4]; first compound 0.6325 µM): 0.226
- relative viability ([4]; first compound 2 µM): 0.217
- relative viability ([5]; first compound 0.02 µM): 0.36
- relative viability ([5]; first compound 0.2 µM): 0.308
- relative viability ([5]; first compound 0.6325 µM): 0.342
- relative viability ([5]; first compound 2 µM): 0.328
- relative viability ([6]; first compound 0.02 µM): 0.407
- relative viability ([6]; first compound 0.2 µM): 0.397
- relative viability ([6]; first compound 0.6325 µM): 0.433
- relative viability ([6]; first compound 2 µM): 0.279
- relative viability ([7]; first compound 0.02 µM): 0.403
- relative viability ([7]; first compound 0.6325 µM): 0.572
- relative viability ([7]; first compound 2 µM): 0.405
- relative viability ([8]; first compound 0.02 µM): 0.501
- relative viability ([8]; first compound 0.2 µM): 0.313
- relative viability ([8]; first compound 0.6325 µM): 0.439
- relative viability ([8]; first compound 2 µM): 0.255
- relative viability ([9]; first compound 0.02 µM): 0.499
- relative viability ([9]; first compound 0.2 µM): 0.608
- relative viability ([9]; first compound 0.6325 µM): 0.473
- relative viability ([9]; first compound 2 µM): 0.496
- relative viability ([10]; first compound 0.02 µM): 0.819
- relative viability ([10]; first compound 0.2 µM): 0.846
- relative viability ([10]; first compound 0.6325 µM): 0.815
- relative viability ([10]; first compound 2 µM): 0.648
- relative viability ([11]; first compound 0.02 µM): 0.403
- relative viability ([11]; first compound 0.2 µM): 0.372
- relative viability ([11]; first compound 0.6325 µM): 0.365
- relative viability ([11]; first compound 2 µM): 0.24
- relative viability ([12]; first compound 0.02 µM): 0.222
- relative viability ([12]; first compound 0.2 µM): 0.148
- relative viability ([12]; first compound 0.6325 µM): 0.213
- relative viability ([12]; first compound 2 µM): 0.154
- relative viability ([13]; first compound 0.02 µM): 0.722
- relative viability ([13]; first compound 0.2 µM): 0.763
- relative viability ([13]; first compound 0.6325 µM): 0.83
- relative viability ([13]; first compound 2 µM): 0.619
- relative viability ([14]; first compound 0.02 µM): 0.977
- relative viability ([14]; first compound 0.2 µM): 0.89
- relative viability ([14]; first compound 0.6325 µM): 0.821
- relative viability ([14]; first compound 2 µM): 0.686
- relative viability ([15]; first compound 0.02 µM): 0.655
- relative viability ([15]; first compound 0.2 µM): 0.715
- relative viability ([15]; first compound 0.6325 µM): 0.5
- relative viability ([15]; first compound 2 µM): 0.609
- relative viability ([16]; first compound 0.02 µM): 0.243
- relative viability ([16]; first compound 0.2 µM): 0.241
- relative viability ([16]; first compound 0.6325 µM): 0.264
- relative viability ([16]; first compound 2 µM): 0.246
- relative viability ([17]; first compound 0.02 µM): 0.257
- relative viability ([17]; first compound 0.2 µM): 0.293
- relative viability ([17]; first compound 0.6325 µM): 0.275
- relative viability ([17]; first compound 2 µM): 0.231
- relative viability ([18]; first compound 0.02 µM): 0.743
- relative viability ([18]; first compound 0.2 µM): 0.345
- relative viability ([18]; first compound 0.6325 µM): 0.426
- relative viability ([18]; first compound 2 µM): 0.327
- relative viability ([19]; first compound 0.02 µM): 0.816
- relative viability ([19]; first compound 0.2 µM): 0.676
- relative viability ([19]; first compound 0.6325 µM): 0.722
- relative viability ([19]; first compound 2 µM): 0.707
- relative viability ([20]; first compound 0.02 µM): 0.65
- relative viability ([20]; first compound 0.2 µM): 0.656
- relative viability ([20]; first compound 0.6325 µM): 0.701
- relative viability ([20]; first compound 2 µM): 0.716
- relative viability ([21]; first compound 0.02 µM): 0.278
- relative viability ([21]; first compound 0.2 µM): 0.34
- relative viability ([21]; first compound 0.6325 µM): 0.179
- relative viability ([21]; first compound 2 µM): 0.157
- relative viability ([22]; first compound 0.02 µM): 0.603
- relative viability ([22]; first compound 0.2 µM): 0.514
- relative viability ([22]; first compound 0.6325 µM): 0.475
- relative viability ([22]; first compound 2 µM): 0.209
- relative viability ([23]; first compound 0.02 µM): 0.778
- relative viability ([23]; first compound 0.2 µM): 0.661
- relative viability ([23]; first compound 0.6325 µM): 0.706
- relative viability ([23]; first compound 2 µM): 0.521
